In brackets after ≈: the same amount, converted by molar mass.
Legend:
C. krusei ATCC 6258 = test: Antifungal activity: MIC/MFC, disc-diffusion; type: cell-based; conditions: for diameter of inhibition zone: C. krusei ATCC 6258, (-) = zone not observed, paper discs 9 mm; for MIC: Pichia kudriavzevii, ATCC6258, read-out: MIC
Description: (§1) Direct antimicrobial activity was determined against the following standard strains: (1) Gram-positive cocci: methicillin-sensitive Staphylococcus aureus ATCC 6538P (MSSA), methicillin-resistant S. aureus subsp. aureus ATCC 43300 (MRSA), S. epidermidis ATCC 12228, Enterococcus faecium ATCC 6057, E. faecalis ATCC 29212, Bacillus subtilis ATCC 6633; (2) Gram-negative bacteria from Enterobacteriales order: Klebsiella pneumoniae ATCC 13883, Escherichia coli ATCC 25922, Enterobacter cloacae DSM 6234, Proteus mirabilis ATCC 12453, Serratia marcescens ATCC 13880; (3) Gram-negative non-fermentative rods: Acinetobacter baumannii ATCC 19606, Pseudomonas aeruginosa ATCC 27853, Stenotrophomonas maltophilia ATCC 12714, S. maltophilia ATCC 13637, Burkholderia cepacia ATCC 25416, Bordetella bronchiseptica ATCC 4617; (4) yeasts: Candida albicans ATCC 90028, C. krusei ATCC 6258, C. parapsilosis ATCC 22019, C. tropicalis (Castellani) Berkhout ATCC 750, C. tropicalis IBA 171, C. guilliermondii IBA 155, and Saccharomyces cerevisiae ATCC 9763. Moreover, 5 clinical strains of methicillin-resistant S. aureus were also included: NMI 664 K, NMI 1576 K, NMI 1712 K, NMI 1991 K, and NMI 2541 K. All strains were stored at −80 °C. Prior to testing, each bacterial strain was subcultured twice on tryptic soy agar TSA (bioMerieux) medium and yeast strains on Sabouraud dextrose agar (bioMerieux) for 24–48 h at 30 °C to ensure viability. The antimicrobial activity was evaluated as previously described[26] by the disc-diffusion method and the MIC determination assays according to the EUCAST (ref. [71] and [72]) and CLSI (ref. [53] and [73]) recommendations. Assessment of bactericidal (MBC) and fungicidal (MFC) activities was performed according to the CLSI recommendations.[54,74] […] The new benzosiloxaboroles were dissolved in DMSO (Sigma).

P. mirabilis ATCC 12453 = test: Antibacterial activity: MIC/MBC, MIC with PAβN, disc-diffusion; type: cell-based, Proteus mirabilis; conditions: Proteus mirabilis, ATCC12453; P. mirabilis ATCC 12453; read-out: MIC
Description: as §1
(§2) Considering that the MDR efflux pumps often contribute to Gram-negative rod resistance, the MIC values of studied agents, with or without the pump inhibitor, PAβN (20 μg mL^−1) (Sigma), were determined.[75] The MIC was determined using Mueller–Hinton II broth medium (MHB) (Becton Dickinson) by the broth microdilution method, according to the CLSI guideliness.[53] To minimize the influence of PAβN on the destabilization of bacterial cell covers, the tests were conducted in the presence of 1 mM MgSO4 (Sigma).[76] At least a 4-fold reduction in the MIC value after the addition of PAβN was considered significant.[56,77]

A. baumannii ATCC 19606 = test: as above; type: cell-based, Acinetobacter baumannii; conditions: A. baumannii ATCC 19606; for MIC: Acinetobacter baumannii, ATCC19606, read-out: MIC
Description: as §1, §2

[1] = system: B. bronchiseptica ATCC 4617; test: Antibacterial activity: MIC/MBC, disc-diffusion; type: cell-based, Bordetella bronchiseptica; conditions: Bordetella bronchiseptica, ATCC4617; B. bronchiseptica ATCC 4617; read-out: MIC
Description: as §1, §2

S. marcescens ATCC 13880 = test: Antibacterial activity: MIC/MBC, MIC with PAβN, disc-diffusion; type: cell-based, Serratia marcescens; conditions: Serratia marcescens, ATCC13880; S. marcescens ATCC 13880; read-out: MIC
Description: as §1, §2

[2] = system: S. aureus ATCC 43300 MRSA; test: Antibacterial activity: MIC/MBC determination and disc-diffusion; type: cell-based; conditions: Staphylococcus aureus, S. aureus ATCC 43300 MRSA; for MBC: read-out: MBC (first MBC where Eagle effect); for MIC: read-out: MIC
Description: (§3) Direct antimicrobial activity was determined against the following standard strains: (1) Gram-positive cocci: methicillin-sensitive Staphylococcus aureus ATCC 6538P (MSSA), methicillin-resistant S. aureus subsp. aureus ATCC 43300 (MRSA), S. epidermidis ATCC 12228, Enterococcus faecium ATCC 6057, E. faecalis ATCC 29212, Bacillus subtilis ATCC 6633; (2) Gram-negative bacteria from Enterobacteriales order: Klebsiella pneumoniae ATCC 13883, Escherichia coli ATCC 25922, Enterobacter cloacae DSM 6234, Proteus mirabilis ATCC 12453, Serratia marcescens ATCC 13880; (3) Gram-negative non-fermentative rods: Acinetobacter baumannii ATCC 19606, Pseudomonas aeruginosa ATCC 27853, Stenotrophomonas maltophilia ATCC 12714, S. maltophilia ATCC 13637, Burkholderia cepacia ATCC 25416, Bordetella bronchiseptica ATCC 4617; (4) yeasts: Candida albicans ATCC 90028, C. krusei ATCC 6258, C. parapsilosis ATCC 22019, C. tropicalis (Castellani) Berkhout ATCC 750, C. tropicalis IBA 171, C. guilliermondii IBA 155, and Saccharomyces cerevisiae ATCC 9763. Moreover, 5 clinical strains of methicillin-resistant S. aureus were also included: NMI 664 K, NMI 1576 K, NMI 1712 K, NMI 1991 K, and NMI 2541 K. All strains were stored at −80 °C. Prior to testing, each bacterial strain was subcultured twice on tryptic soy agar TSA (bioMerieux) medium and yeast strains on Sabouraud dextrose agar (bioMerieux) for 24–48 h at 30 °C to ensure viability. The antimicrobial activity was evaluated as previously described[26] by the disc-diffusion method and the MIC determination assays according to the EUCAST (ref. [71] and [72]) and CLSI (ref. [53] and [73]) recommendations. Assessment of bactericidal (MBC) and fungicidal (MFC) activities was performed according to the CLSI recommendations.[54,74] The following reference agents were used: fluconazole (in the case of fungi), linezolid (for Gram-positive bacteria), and nitrofurantoin (for Gram-negative rods). The new benzosiloxaboroles were dissolved in DMSO (Sigma).

E. faecium ATCC 6057 = test: as above; type: cell-based; conditions: Enterococcus faecium, ATCC6057, E. faecium ATCC 6057; for MIC: read-out: MIC
Description: as §3

E. faecalis ATCC 29212 = test: as above; type: cell-based; conditions: Enterococcus faecalis, ATCC29212, E. faecalis ATCC 29212; for MIC: read-out: MIC
Description: as §3

[3] = system: S. epidermidis ATCC 12228; test: as above; type: cell-based; conditions: Staphylococcus epidermidis, ATCC12228, S. epidermidis ATCC 12228; for MIC: read-out: MIC
Description: as §3

E. coli ATCC 25922 = test: Antibacterial activity: MIC/MBC, MIC with PAβN, disc-diffusion; type: cell-based, Escherichia coli; conditions: E. coli ATCC 25922; for MIC: Escherichia coli, ATCC25922, read-out: MIC; for -fold reduction of MIC in the presence of PAβN: PAβN 20 μg mL^−1, MHB + 1 mM MgSO4
Description: as §1, §2

| SMILES | diameter of inhibition zone (C. krusei ATCC 6258) [mm] | MIC (C. krusei ATCC 6258) [µg/mL] | MIC (P. mirabilis ATCC 12453) [µg/mL] | MIC (A. baumannii ATCC 19606) [µg/mL] | MIC [1] [µg/mL] | MIC (S. marcescens ATCC 13880) [µg/mL] | MBC [2] [µg/mL] | MIC [2] [µg/mL] | MBC (E. faecium ATCC 6057) [µg/mL] | MIC (E. faecium ATCC 6057) [µg/mL] | MBC (E. faecalis ATCC 29212) [µg/mL] | MIC (E. faecalis ATCC 29212) [µg/mL] | MBC [3] [µg/mL] | MIC [3] [µg/mL] | MIC (E. coli ATCC 25922) [µg/mL] | -fold reduction of MIC in the presence of PAβN (A. baumannii ATCC 19606; PAβN 20 μg mL^−1, MHB + 1 mM MgSO4) | diameter of inhibition zone (E. coli ATCC 25922; (-) = zone not observed, paper discs 9 mm) [mm] | -fold reduction of MIC in the presence of PAβN (E. coli ATCC 25922) |
| --- | --- | --- | --- | --- | --- | --- | --- | --- | --- | --- | --- | --- | --- | --- | --- | --- | --- | --- |
| C[Si]1(C)OB(O)c2cc(F)c(S)c(F)c21 [Compound 1e, 5,7-Difluoro-6-mercapto-1,1-dimethylbenzo[c][1,2,5]oxasilaborol-3(1H)-ol] | 13 | 400 (≈ 1630 µM) | > 400 | > 400 | > 400 | > 400 | 25 (≈ 102 µM) | 12.5 (≈ 50.8 µM) | 400 (≈ 1630 µM) | 12.5 (≈ 50.8 µM) | 100 (≈ 406 µM) | 12.5 (≈ 50.8 µM) | 50 (≈ 203 µM) | 1.56 (≈ 6.34 µM) | > 400 |  |  |  |
| C[Si]1(C)OB(O)c2ccc(S)c(F)c21 [Compound 2e, 7-Fluoro-6-mercapto-1,1-dimethylbenzo[c][1,2,5]oxasilaborol-3(1H)-ol] |  | > 100 | > 100 | > 100 | > 100 | > 100 | 25 (≈ 110 µM) | 12.5 (≈ 54.8 µM) |  | 12.5 (≈ 54.8 µM) |  | 12.5 (≈ 54.8 µM) | 25 (≈ 110 µM) | 6.25 (≈ 27.4 µM) | > 100 |  |  |  |
| CC(=O)CCSc1c(F)cc2c(c1F)[Si](C)(C)OB2O [Compound 3, 4-((5,7-Difluoro-3-hydroxy-1,1-dimethyl-1,3-dihydrobenzo[c][1,2,5]oxasilaborol-6-yl)thio)butan-2-one] |  | 200 (≈ 632 µM) | > 400 | > 400 | 50 (≈ 158 µM) | > 400 | 200 (≈ 632 µM) | 50 (≈ 158 µM) | 200 (≈ 632 µM) | 12.5 (≈ 39.5 µM) | 200 (≈ 632 µM) | 25 (≈ 79.1 µM) | 200 (≈ 632 µM) | 25 (≈ 79.1 µM) | > 400 |  |  |  |
| COC(=O)CCSc1ccc2c(c1F)[Si](C)(C)OB2O [Compound 4, Methyl 3-((7-fluoro-3-hydroxy-1,1-dimethyl-1,3-dihydrobenzo[c][1,2,5]oxasilaborol-6-yl)thio)propanoate] | 12 | 200 (≈ 636 µM) | > 400 | > 400 | > 400 | > 400 |  | 12.5 (≈ 39.8 µM) |  | 100 (≈ 318 µM) |  | 200 (≈ 636 µM) |  | 25 (≈ 79.6 µM) | 400 (≈ 1270 µM) | 2 -fold | 15 | 8 -fold |
| C[Si]1(C)OB(O)c2cc(F)c(SCCC(=O)ON3C(=O)CCC3=O)c(F)c21 [Compound 5, 2,5-Dioxopyrrolidin-1-yl 3-((5,7-difluoro-3-hydroxy-1,1-dimethyl-1,3-dihydrobenzo-[c][1,2,5]oxasilaborol-6-yl)thio)propanoate] |  | > 400 | > 400 | > 400 | > 400 | > 400 |  | 400 (≈ 963 µM) |  | 400 (≈ 963 µM) |  | 400 (≈ 963 µM) |  | 400 (≈ 963 µM) | > 400 |  |  |  |
| C[Si]1(C)OB(O)c2cc(F)c(SCCC#N)c(F)c21 [Compound 6, 3-((5,7-Difluoro-3-hydroxy-1,1-dimethyl-1,3-dihydrobenzo[c][1,2,5]oxasilaborol-6-yl)thio)propanenitrile] |  | > 400 | > 400 | > 400 | > 400 | > 400 | > 400 | 12.5 (≈ 41.8 µM) |  | 400 (≈ 1340 µM) |  | 400 (≈ 1340 µM) |  | 50 (≈ 167 µM) | > 400 |  |  | 2 -fold |
| C[Si]1(C)OB(O)c2cc(F)c(S(=O)(=O)N3CCOCC3)c(F)c21 [Compound 29, 5,7-Difluoro-1,1-dimethyl-6-(morpholinosulfonyl)benzo[c][1,2,5]oxasilaborol-3(1H)-ol] |  |  | > 400 | > 400 | > 400 | > 400 |  | 400 (≈ 1100 µM) |  | 400 (≈ 1100 µM) |  | > 400 |  | 400 (≈ 1100 µM) | > 400 |  |  | 2 -fold |

Reference: publication PMC11110727, “Exploiting thiol-functionalized benzosiloxaboroles for achieving diverse substitution patterns – synthesis, characterization and biological evaluation of promising antibacterial agents” (RSC Medicinal Chemistry, 2024)
